ChEMBL document CHEMBL1795284, “Total synthesis of racemic and (R) and (S)-4-methoxyalkanoic acids and their antifungal activity” (2011)
≈ marks a conversion by molar mass, not a printed value.

What was measured:
Format in all cases: functional
Candida albicans [1] = assay: Antifungal activity against Candida albicans MTCC 3017 after 18 hrs by microtiter broth dilution method; conditions: MTCC 3017, 18 h
Candida albicans [2] = assay: Antifungal activity against Candida albicans MTCC 227 after 18 hrs by microtiter broth dilution method; conditions: MTCC 227, 18 h
Pichia kudriavzevii = assay: Antifungal activity against Issatchenkia orientalis MTCC 3020 after 18 hrs by microtiter broth dilution method; conditions: MTCC 3020, 18 h
Aspergillus niger = assay: Antifungal activity against Aspergillus niger MTCC 281 after 18 hrs by microtiter broth dilution method; conditions: MTCC 281, 18 h
Candida albicans [3] = assay: Antifungal activity against Candida albicans MTCC 4748 after 18 hrs by microtiter broth dilution method; conditions: MTCC 4748, 18 h
Candida parapsilosis = assay: Antifungal activity against Candida parapsilosis MTCC 1744 after 18 hrs by microtiter broth dilution method; conditions: Lodderomyces parapsilosis, MTCC 1744, 18 h

With `CCCCCC[C@@H](CCC(=O)O)OC` the MIC (Candida albicans [1]) was 156 µg/mL (≈ 771 µM), the MIC (Candida albicans [2]) was 1250 µg/mL (≈ 6180 µM) and the MIC (Pichia kudriavzevii) was 312 µg/mL (≈ 1540 µM). For the same molecule, the MIC (Aspergillus niger) was 1240 µg/mL (≈ 6120 µM), the MIC (Candida albicans [3]) was 39 µg/mL (≈ 193 µM) and the MIC (Candida parapsilosis) was 156 µg/mL (≈ 771 µM).
For `CCCCCCC(CCC(=O)O)OC` (racemic), the MIC (Candida albicans [1]) was 5010 µg/mL (≈ 24800 µM), the MIC (Candida albicans [2]) was 625 µg/mL (≈ 3090 µM) and the MIC (Pichia kudriavzevii) was 1250 µg/mL (≈ 6180 µM). It also gave an MIC (Aspergillus niger) of 631 µg/mL (≈ 3120 µM), an MIC (Candida albicans [3]) of 156 µg/mL (≈ 771 µM) and an MIC (Candida parapsilosis) of 5010 µg/mL (≈ 24800 µM).
In the case of `CCCCCCC[C@H](CCC(=O)O)OC`, the MIC (Candida albicans [1]) is reported as 1250 µg/mL (≈ 5780 µM), the MIC (Candida albicans [2]) is reported as 156 µg/mL (≈ 721 µM) and the MIC (Pichia kudriavzevii) is reported as 312 µg/mL (≈ 1440 µM). The MIC (Aspergillus niger) was 168 µg/mL (≈ 777 µM) and the MIC (Candida albicans [3]) was 78 µg/mL (≈ 361 µM).
`CCCCCCCC(CCC(=O)O)OC` (racemic) was tested, and the MIC (Candida albicans [1]) was 78 µg/mL (≈ 361 µM), the MIC (Candida albicans [2]) was 156 µg/mL (≈ 721 µM) and the MIC (Pichia kudriavzevii) was 312 µg/mL (≈ 1440 µM). For the same molecule, the MIC (Aspergillus niger) was 164 µg/mL (≈ 758 µM), the MIC (Candida albicans [3]) was 19 µg/mL (≈ 87.8 µM) and the MIC (Candida parapsilosis) was 625 µg/mL (≈ 2890 µM).
Molecule `CCCCCC[C@H](CCC(=O)O)OC` has an MIC (Candida albicans [1]) of 312 µg/mL (≈ 1540 µM), an MIC (Candida albicans [2]) of 19 µg/mL (≈ 93.9 µM) and an MIC (Pichia kudriavzevii) of 19 µg/mL (≈ 93.9 µM). It also gave an MIC (Aspergillus niger) of 19 µg/mL (≈ 93.9 µM), an MIC (Candida albicans [3]) of 19 µg/mL (≈ 93.9 µM) and an MIC (Candida parapsilosis) of 625 µg/mL (≈ 3090 µM).
Molecule `CCCCCCC[C@@H](CCC(=O)O)OC` has an MIC (Candida albicans [1]) of 1250 µg/mL (≈ 5780 µM), an MIC (Candida albicans [2]) of 78 µg/mL (≈ 361 µM) and an MIC (Pichia kudriavzevii) of 2500 µg/mL (≈ 11600 µM). For the same molecule, the MIC (Aspergillus niger) was 82 µg/mL (≈ 379 µM), the MIC (Candida albicans [3]) was 156 µg/mL (≈ 721 µM) and the MIC (Candida parapsilosis) was 2500 µg/mL (≈ 11600 µM).
For `OC(Cn1cncn1)(Cn1cncn1)c1ccc(F)cc1F` [FLUCONAZOLE], the MIC (Candida albicans [1]) was 64 µg/mL (≈ 209 µM), the MIC (Candida albicans [2]) was 32 µg/mL (≈ 104 µM) and the MIC (Pichia kudriavzevii) was 128 µg/mL (≈ 418 µM). It also gave an MIC (Aspergillus niger) of 34 µg/mL (≈ 111 µM), an MIC (Candida albicans [3]) of 32 µg/mL (≈ 104 µM) and an MIC (Candida parapsilosis) of 16 µg/mL (≈ 52.2 µM).
